Like-named read-outs stand apart in the source and are kept apart here.
Test system: SMN2-linked luciferase-reporter gene construct
Assay: SMN splice reporter assay (SMN2-linked luciferase reporter, Example 10)
Type: cell-based
Conditions: for EC50: SMN2-linked luciferase reporter
From the text: Cervical carcinoma cell lines were transformed with a SMN2-linked luciferase-reporter gene construct. The reporter is designed to detect shifts in the alternative splicing of SMN2 sequences. In particular, the reporter is constructed as a fusion of the alternatively spliced sequences of the SMN2 gene and the luciferase gene. Luciferase sequences are in the correct translational reading frame only when the SMN2 sequences are spliced according to the normal SMN1 mechanism (e.g., splicing to include exon 7), which allows for translation of the stable SMN protein. Compounds were tested in the assay by administering the compound to the cell line and detecting an increase in the luciferase activity. The assay is described in greater detail in Zhang et al., Gene Ther., 8, 1532-8 (2001). Compounds were administered as described in Lunn et al, Chem. & Biol, 11, 1489-1493 (2004).
The results are reported as a fold-increase over a baseline reading of transformed cells without any test compound.

[1] = maximum fold increase of reporter signal, average, read-out: SMN Splice Reporter Assay (Example 10) Avg MaxFold Increase

Structure (SMILES)	EC50 (average) [nM]	maximal fold induction [1]	maximal fold induction (read-out: SMN Splice Reporter Assay (Example 10) Avg MaxFold Increase, maximum fold increase of reporter signal, average, heading: SMN Splice Reporter Assay Avg MaxFold Increase)
CC(C(=O)O)c1ccc(N2Cc3ccccc3C2=O)c(-c2cncnc2)c1 (stereo not shown) [ALB-112231]	–	1.08	–
CC(C(=O)O)c1ccc(N2Cc3ccccc3C2=O)cc1-c1cncnc1 (stereo not shown) [ALB-112232]	–	1.05	–
CC(C(=O)O)c1ccc(N2Cc3ccccc3C2=O)c(-c2cccs2)c1 (stereo not shown) [ALB-112233]	–	1.03	–
O=C(O)Cc1ccc(N2Cc3ccccc3C2=O)cc1 [ALB-112235]	–	0.941	–
CC(C(=O)OC(C)(C)C)c1ccc(N2Cc3ccccc3C2=O)cc1-c1ccc(Cl)cc1 (stereo not shown) [ALB-112328]	–	1.04	–
CC(C(=O)O)c1ccc(N2Cc3ccccc3C2=O)cc1-c1ccc(Cl)cc1 (stereo not shown) [ALB-112329]	–	1.09	–
CC(C#N)c1ccc(N2Cc3ccccc3C2=O)cc1 (stereo not shown) [ALB-112330]	259	1.46	–
CC(C(=O)OC(C)(C)C)c1ccc(N2Cc3c(cccc3-c3cncnc3)C2=O)cc1 (stereo not shown) [ALB-112349]	–	1.06	–
CC(C(=O)OC(C)(C)C)c1ccc(N2Cc3c(C#N)cccc3C2=O)cc1 (stereo not shown) [ALB-112350]	–	1.18	–
CC(C(=O)O)c1ccc(N2Cc3c(C#N)cccc3C2=O)cc1 (stereo not shown) [ALB-112351]	–	1.21	–
CC(C(=O)OC(C)(C)C)c1cccc(N2Cc3ccccc3C2=O)c1 (stereo not shown) [ALB-112361]	–	1.09	–
CC(C)(C)OC(=O)C1(c2ccc(N3Cc4ccccc4C3=O)cc2)CCCC1 [ALB-112362]	–	1.05	–
O=C1c2ccccc2CN1c1ccc(C2(C(=O)O)CCCC2)cc1 [ALB-112431]	–	1.21	–
CCC(C(=O)O)c1ccc(N2Cc3ccccc3C2=O)cc1 (stereo not shown) [ALB-112433]	4180	1.32	–
O=C1c2ccccc2CN1c1ccc(C2(C(=O)O)CC2)cc1 [ALB-112434]	–	1.28	–
CC(C(=O)OC(C)(C)C)c1ccc(N2Cc3ccccc3C2=O)cc1C#N (stereo not shown) [ALB-112435]	5980	1.2	–
CC(C(=O)OC(C)(C)C)c1ccc(N2Cc3ccccc3C2=O)c(C#N)c1 (stereo not shown) [ALB-112436]	–	1.07	–
CC(C(=O)O)c1ccc(N2Cc3ccccc3C2=O)cc1C#N (stereo not shown) [ALB-112437]	–	1.09	–
CC(C(=O)OC(C)(C)C)c1ccc(N2Cc3ccc(-c4ccccc4)cc3C2=O)cc1 (stereo not shown) [ALB-112441]	–	1.08	–
Cc1ccc(-c2ccc3c(c2)C(=O)N(c2ccc(C(C)C(=O)OC(C)(C)C)cc2)C3)cc1 (stereo not shown) [ALB-112442]	–	1.11	–
CC(C(=O)OC(C)(C)C)c1ccc(N2Cc3ccc(-c4ccc(Cl)cc4)cc3C2=O)cc1 (stereo not shown) [ALB-112443]	–	1.07	–
CC(C(=O)OC(C)(C)C)c1ccc(N2Cc3cc(C#N)ccc3C2=O)cc1 (stereo not shown) [ALB-112444]	307	1.04	–
CC(C(=O)OC(C)(C)C)c1ccc(N2Cc3ccc(C#N)cc3C2=O)cc1 (stereo not shown) [ALB-112445]	–	1.13	–
CC(C(=O)O)c1ccc(N2Cc3ccc(-c4ccc(Cl)cc4)cc3C2=O)cc1 (stereo not shown) [ALB-112449]	–	1.16	–

Structure (SMILES)	EC50 (average) [nM]	maximal fold induction [1]	maximal fold induction (read-out: SMN Splice Reporter Assay (Example 10) Avg MaxFold Increase, maximum fold increase of reporter signal, average, heading: SMN Splice Reporter Assay Avg MaxFold Increase)
COc1ccc(-c2ccc3c(c2)C(=O)N(c2ccc(C(C)C(=O)OC(C)(C)C)cc2)C3)cc1 (stereo not shown) [ALB-112450]	–	1.09	–
CC(C(=O)OC(C)(C)C)c1ccc(N2Cc3cccc(C#N)c3C2=O)cc1 (stereo not shown) [ALB-112472]	–	1.12	–
CC(C(=O)OC(C)(C)C)c1ccc(N2Cc3ccc(-c4cccs4)cc3C2=O)cc1 (stereo not shown) [ALB-112474]	–	1.18	–
CC(C(=O)OC(C)(C)C)c1ccc(N2Cc3ccc(-c4cncnc4)cc3C2=O)cc1 (stereo not shown) [ALB-112476]	–	1.08	–
CC(C(=O)O)c1ccc(N2Cc3cc(C#N)ccc3C2=O)cc1 (stereo not shown) [ALB-112477]	6980	1.18	–
CC(C(=O)O)c1ccc(N2Cc3ccc(C#N)cc3C2=O)cc1 (stereo not shown) [ALB-112478]	2040	1.23	–
Cc1cc(C(C)C(=O)OC(C)(C)C)ccc1N1Cc2ccccc2C1=O (stereo not shown) [ALB-112483]	–	1.03	–
Cc1cc(N2Cc3ccccc3C2=O)ccc1C(C)C(=O)O (stereo not shown) [ALB-112485]	–	1.3	–
Cc1cc(C(C)C(=O)O)ccc1N1Cc2ccccc2C1=O (stereo not shown) [ALB-112487]	–	1.17	–
CC(C(=O)O)c1ccc(N2Cc3ccc(-c4cccnc4)cc3C2=O)cc1 (stereo not shown) [ALB-112514]	–	1.25	–
CC(C(=O)O)c1ccc(N2Cc3ccc(-c4ccc(Cl)c(Cl)c4)cc3C2=O)cc1 (stereo not shown) [ALB-112516]	–	1.2	–
CC(C(=O)O)c1ccc(N2Cc3ccc(-c4cncnc4)cc3C2=O)cc1 (stereo not shown) [ALB-112517]	–	1.25	–
CC(C(=O)O)c1ccc(N2Cc3cccc(C#N)c3C2=O)cc1 (stereo not shown) [ALB-112518]	–	1.12	–
CC(C(=O)O)c1ccc(N2Cc3cc(N4CCOCC4)ccc3C2=O)cc1 (stereo not shown) [ALB-112554]	–	1.06	–
C[C@H](C(=O)O)c1ccc(N2Cc3ccccc3C2=O)cc1 [ALB-112837]	8540	1.4	–
CC(C(=O)O)c1ccc(N2CC3=C(CC=CC3)C2=O)cc1 (stereo not shown) [ALB-112896]	1010	1.58	–
CC(C(=O)O)c1ccc(N2CC3=C(CCCC3)C2=O)cc1 (stereo not shown) [ALB-112951]	279	1.79	–
Cc1ccc2c(c1)C(=O)N(c1ccc(C(C)C(=O)O)cc1)C2 (stereo not shown) [ALB-112954]	330	1.62	–
C=Cc1ccc2c(c1)CN(c1ccc(C(C)C(=O)OC(C)(C)C)cc1)C2=O (stereo not shown) [ALB-113100]	101	1.05	–
CCOc1ccc2c(c1)C(=O)N(c1ccc(C(C)C(=O)OC(C)(C)C)cc1)C2 (stereo not shown) [ALB-113101]	242	1.38	–
CC(C(=O)O)c1ccc(N2Cc3ccc(O)cc3C2=O)cc1 (stereo not shown) [ALB-113103]	–	1.04	–
CCc1ccc2c(c1)C(=O)N(c1ccc(C(C)C(=O)OC(C)(C)C)cc1)C2 (stereo not shown) [ALB-113211]	786	1.37	–
CCc1ccc2c(c1)C(=O)N(c1ccc(C(C)C(=O)O)cc1)C2 (stereo not shown) [ALB-113212]	103	1.87	–
CC(=O)c1ccc2c(c1)C(=O)N(c1ccc(C(C)C(=O)O)cc1)C2 (stereo not shown) [ALB-113387]	50	1.18	–

The next lines start with results.

EC50 (average) [nM]	Structure (SMILES)	maximal fold induction [1]	maximal fold induction (read-out: SMN Splice Reporter Assay (Example 10) Avg MaxFold Increase, maximum fold increase of reporter signal, average, heading: SMN Splice Reporter Assay Avg MaxFold Increase)
25400	CC(C(=O)O)c1ccc(N2Cc3ccccc3C2=O)cc1-c1ccccc1 (stereo not shown) [ALB-112234]	1.26	–
4210	CC(C(=O)OC(C)(C)C)c1ccc(N2Cc3ccc(Br)cc3C2=O)cc1 (stereo not shown) [ALB-112327]	1.47	–
130	CC(C(=O)O)c1ccc(N2Cc3ccc(Br)cc3C2=O)cc1 (stereo not shown) [ALB-112352]	–	1.12
16000	CC(C(=O)O)c1ccc(N2Cc3c(cccc3-c3cncnc3)C2=O)cc1 (stereo not shown) [ALB-112353]	1.53	–
424	CC(=O)c1ccc(N2Cc3ccccc3C2=O)cc1 [ALB-112360]	1.14	–
3260	CCC(C(=O)OC(C)(C)C)c1ccc(N2Cc3ccccc3C2=O)cc1 (stereo not shown) [ALB-112364]	1.21	–
12400	CC(C)(C)OC(=O)C1(c2ccc(N3Cc4ccccc4C3=O)cc2)CC1 [ALB-112365]	1.5	–
2710	Cc1cc(N2Cc3ccccc3C2=O)ccc1C(C)C(=O)OC(C)(C)C (stereo not shown) [ALB-112438]	1.42	–
1700	CC(C(=O)O)c1ccc(N2Cc3ccc(-c4ccccc4)cc3C2=O)cc1 (stereo not shown) [ALB-112446]	1.45	–
2020	Cc1ccc(-c2ccc3c(c2)C(=O)N(c2ccc(C(C)C(=O)O)cc2)C3)cc1 (stereo not shown) [ALB-112447]	1.27	–
6190	COc1ccc(-c2ccc3c(c2)C(=O)N(c2ccc(C(C)C(=O)O)cc2)C3)cc1 (stereo not shown) [ALB-112448]	1.55	–
2	CC(C(=O)OC(C)(C)C)c1ccc(N2Cc3ccc(-c4cccnc4)cc3C2=O)cc1 (stereo not shown) [ALB-112473]	1.03	–
114	CC(C(=O)OC(C)(C)C)c1ccc(N2Cc3ccc(-c4ccc(Cl)c(Cl)c4)cc3C2=O)cc1 (stereo not shown) [ALB-112475]	1.05	–
494	CC(C(=O)O)c1ccc(N2Cc3ccc(-c4cccs4)cc3C2=O)cc1 (stereo not shown) [ALB-112515]	1.62	–
5900	Cc1cccc2c1CN(c1ccc(C(C)C(=O)O)cc1)C2=O (stereo not shown) [ALB-112555]	1.64	–
146	Cc1ccc2c(c1)CN(c1ccc(C(C)C(=O)O)cc1)C2=O (stereo not shown) [ALB-112556]	1.56	–
288	Cc1cccc2c1C(=O)N(c1ccc(C(C)C(=O)O)cc1)C2 (stereo not shown) [ALB-112557]	1.73	–
5820	CC(C(=O)O)c1ccc(N2CC3CCCCC3C2=O)cc1 (stereo not shown) [ALB-112901]	1.49	–
280	C[C@@H](C(=O)O)c1ccc(N2Cc3ccccc3C2=O)cc1 [ALB-112941]	1.48	–
3740	C/C=C\c1ccc2c(c1)C(=O)N(c1ccc(C(C)C(=O)OC(C)(C)C)cc1)C2 (stereo not shown) [ALB-113000]	1.31	–
62	CCOc1ccc2c(c1)C(=O)N(c1ccc(C(C)C(=O)O)cc1)C2 (stereo not shown) [ALB-113102]	1.83	–
2880	C=Cc1ccc2c(c1)C(=O)N(c1ccc(C(C)C(=O)OC(C)(C)C)cc1)C2 (stereo not shown) [ALB-113210]	1.15	–
144	CC(CO)c1ccc(N2Cc3ccccc3C2=O)cc1 (stereo not shown) [ALB-113309]	1.19	–

— patent US8110681B2, “Compounds for the treatment of spinal muscular atrophy and other uses” (The United States of America as represented by the …, priority 2006, dated 2012)
